Experimental data from ChEMBL document CHEMBL5390225, “Discovery and structural optimization of a new series of N-acyl-2-aminobenzothiazole as inhibitors of Zika virus” (Bioorg Med Chem, 2023).

Assays:
Zika virus [1] = assay: Antiviral activity against Zika virus PE243 infected in African green monkey Vero E6 cells assessed as inhibition of viral replication at 10 uM incubated for 72 hrs by immunofluorescence analysis; assay type: functional; details: PE243, Vero C1008
Zika virus [2] = assay: Antiviral activity against Zika virus PE243 infected in African green monkey Vero E6 cells assessed as inhibition of viral replication at 2 uM incubated for 72 hrs by immunofluorescence analysis; assay type: functional; details: PE243, Vero C1008
[3] = Cytotoxicity against African green monkey Vero E6 cells assessed as cell viability at 10 uM measured after 72 hrs by MTT assay relative to control; assay type: toxicity, cell-based, Vero C1008; details: chlorocebus sabaeus, read-out: Activity
[4] = Cytotoxicity against African green monkey Vero E6 cells assessed as cell viability at 2 uM measured after 72 hrs by MTT assay relative to control; assay type: toxicity, cell-based, Vero C1008; details: chlorocebus sabaeus, read-out: Activity
Zika virus [5] = assay: Antiviral activity against Zika virus PE243 infected in African green monkey Vero E6 cells assessed as inhibition of viral replication incubated for 72 hrs by immunofluorescence analysis; assay type: functional, organism-based; details: PE243, Vero C1008, 72 h
[6] = Cytotoxicity against African green monkey Vero E6 cells assessed as reduction in cell viability measured after 72 hrs by MTT assay; assay type: toxicity, cell-based, Vero C1008; details: chlorocebus sabaeus
[7] = Selectivity index, ratio of CC50 for cytotoxicity against African green monkey Vero E6 cells to EC50 for antiviral activity against Zika virus PE243 infected in African green monkey Vero E6 cells; assay type: toxicity, cell-based, Vero C1008; details: read-out: Ratio CC50/EC50
Zika virus [8] = assay: (§1) Inhibition of Zika virus BeH823339 NS2B protease (49 to 95 residues) R96A mutant/NS3 protease (1 to 170 residues) R29G/ C80S/C143S mutant expressed in Escherichia coli BL21 (DE3) cells using Bz-Nle-Lys-Lys-Arg-AMC as a fluorogenic substrate at 100 uM by fluorescence-based analysis relative to control
Zika virus [9] = assay: as §1, with “uM preincubated with enzyme for 10 mins” for “uM”
Zika virus [10] = assay: Antiviral activity against Zika virus infected in golden hamster BHK21-RepZIKV_IRES-Neo cells assessed as inhibition of viral replication by measuring reduction in renilla luciferase expression at 10 uM measured after 72 hrs by luciferase reporter gene assay relative to control; assay type: functional, Mesocricetus auratus; details: BHK-21
BHK-21 = assay: Cytotoxicity against golden hamster BHK21-RepZIKV_IRES-Neo cells assessed as reduction in cell viability measured after 72 hrs by MTT assay; assay type: toxicity, cell-based, Mesocricetus auratus; details: bhk-21, 72 h
Nonstructural protein 3 = Nonstructural protein 3 (Zika virus, UniProt A0A024AXB9); assay: Inhibition of N-terminal His-tagged Zika virus NS2B protease (46 to 99 residues)/NS3 protease (1 to 187 residues) expressed in Escherichia coli Rosetta2(DE3) cells using Boc-Gly-Arg-Arg-AMC as substrate preincubated with enzyme for 10 mins followed by substrate addition and measured for 10 mins by fluorescence based analysis
Chain of Nonstructural protein 3 (A0A024AXB9 whole entry, the tested form may be a part): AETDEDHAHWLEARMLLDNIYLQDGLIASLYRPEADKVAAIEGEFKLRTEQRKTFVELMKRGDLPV

Molecule `COc1ccc(S(=O)(=O)Nc2ccc(C(=O)Nc3nc4ccccc4s3)cc2)cc1` has an inhibition at 10 µM (Zika virus [1]) of 74.4%, an inhibition at 2 µM (Zika virus [2]) of 10.8% and a viability at 72 h, 10 µM [3] of 94.8%. For the same molecule, the viability at 72 h, 2 µM [4] was 88.7%, the EC50 (Zika virus [5]) was 11.1 µM and the CC50 at 72 h [6] was 13.3 µM. The selectivity ratio [7] was 1.2, the inhibition (Zika virus [8]) was 38% and the inhibition (Zika virus [9]) was 32%. The inhibition at 10 µM (Zika virus [10]) was 63.4%, the Activity (BHK-21) was “Non-Toxic” and the IC50 (Nonstructural protein 3) was 5.2 µM.
